Read-outs that look alike come from different tables or passages of the source.
Legend:
[1] = test system: PBMCs cocultured with CHO/TCRAct/PD-L1 cells; test: Cytokine accumulation in culture media of the TCA assay (CBA Th1/Th2/Th17 kit); type: cell-based, human; settings: TCA assay supernatants, four donors
Description: In addition to the expression of surface markers, the accumulation of immune-related cytokines in the culture media collected in the TCA assay was monitored with the cytometric bead array (CBA) human Th1/Th2/Th17 kit. […] Also, the levels of IL-6, IFN-γ, and IL-2 increased, but these increases were not statistically significant.
The concentration of the cytokines (IL-2, IL-4, IL-6, IL-10, IL-17A, IFN-γ, and TNFα) in supernatants was determined using the CBA Human Th1/Th2/Th17 kit (BD Biosciences), with data acquisition using the FACSCanto flow cytometer. The CBA beads were discriminated in FL-4 and FL-5 channels, while the concentration of specified cytokines was determined by the intensity of FL-2 fluorescence, using the respective standard reference curve and FCAP Array software (BD Biosciences). IL-4 was below the detection level and is not presented in the manuscript. Statistical significance was analyzed with one-way ANOVA using the Origin Pro 2020 software, followed by the Fisher’s posthoc test: *p < 0.05, **p < 0.01, […].

[2] = test system: Jurkat-ECs alone or with CHO wt or CHO/TCRAct cells; test: ICB assay control where PD-L1 is absent; type: cell-based; settings: 6 h; Figure S1
Description: The functional assay of the blockade of PD-1/PD-L1 interaction in vitro (PD-1/PD-L1 Blockade Bioassay, Promega) was performed according to the manufacturer’s protocol. CHO/TCRAct/PD-L1 cells or CHO/TCRAct or CHO-K1 cells were seeded on 96-well white plates at the density of 10,000 cells/well and the next day overlaid with Jurkat T cells (20,000 cells/well) in the presence of increasing concentrations of the compounds with DMSO only as a control (the concentration of DMSO was kept constant at 0.1%) or atezolizumab, as a positive control, anti-PD-L1 monoclonal antibody (Selleckchem). The 2.5-fold dilutions of atezolizumab were prepared in the assay buffer (RPMI 1640 + 1% FBS) on the day of the assay. Activation of the Jurkat T cells, reflected by luciferase activity, was monitored by luminescence measurements after 6 h of incubation (37 °C, 5% CO2), and 20 min of additional incubation with the Bio-Glo assay reagent (Promega) at room temperature. The luminescence was read on a Spark microplate reader (Tecan). The data are presented as fold induction of the luminescence signal relative to either untreated (for atezolizumab) or DMSO-treated (for compound) cells. Data points represent mean ± SD values from three to five independent experiments. Half-maximal effective concentrations (EC50 values) were calculated from the Hill curve fitting to the experimental data using Origin Pro 2020 software (OriginLab). […]
of the Immune Checkpoint Blockade (ICB) assay, where 8h, 8i, and 8j were used to restore the activation of effector Jurkat-ECs. Jurkat-ECs were either kept alone, or contacted with one of the following cell lines: wild type CHO K1 cells (CHO wt), CHO K1 cells expressing TCR Activator (CHO/TCRAct), or CHO K1 cells expressing TCR Activator and […]. The cells were incubated with the indicated concentrations of the compounds for 6 hours and luminescence was measured as an indicator of TCR-dependent activation of Jurkat-ECs. The graphs present fold induction of the luminescence signal relative to DMSO-treated cells. […]

[3] = Cytotoxicity assay toward Jurkat-ECs; type: cell-based; settings: human, Jurkat-EC cells, SI csv
Description: The cytotoxicity of compounds was verified toward Jurkat-ECs since these cells provide the readout in the ICB assay and present a much higher degree of susceptibility to the compounds’ toxicity than CHO-K1 cells (not shown). Jurkat-ECs were seeded on 96-well transparent plates in the presence of increasing concentrations of the compounds with DMSO-treated cells as a control. The concentration of DMSO was kept constant (0.1%). After 48 h of incubation, a tetrazolium reagent, Biolog redox dye MIX MB (Biolog), was added according to the manufacturer’s protocol, and the culture plates were incubated for an additional 2 h (37 °C, 5% CO2). The absorbance was measured using a Spark microplate reader (Tecan) at 590 nm with 750 nm as a reference. The data are presented as Jurkat-EC survival relative to DMSO-treated control cells. Data points represent mean ± SD values from three independent experiments. Half-maximal effective concentrations (EC50 values) were calculated from the dose–response curve using OriginPro 2020 (OriginLab) software.

[4] = biological target: PD-1/PD-L1 complex (Homo sapiens, UniProt Q9NZQ7); test: HTRF assay of PD-1/PD-L1 complex dissociation (CisBio); settings: for remaining activity at 0.005 µM: 2 h;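 as to all read-outs here: human PD-L1 at 5 nM with human PD-1 at 50 nM, TR-FRET signal read after 2 h at room temperature, background removed via negative control and scaled to positive control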
Description: HTRF was performed using the certified CisBio assay according to the manufacturer’s guidelines. The experiments were performed at 5 nM h-PD-L1 and 50 nM hPD-1 in the final formulation at 20 μL final volume in the well. To determine the half-maximal inhibitory concentration (IC50) of tested compounds, measurements were performed on two individual dilution series, unless states otherwise. After mixing all components according to the CisBio protocol, the plate was left for 2 h incubation at room temperature, followed by time-resolved fluorescence energy transfer (TR-FRET) measurement on Tecan Spark 20M. Collected data were background-subtracted on the negative control, normalized on the positive control, averaged, and fitted with normalized Hill’s equation to determine the IC50 value using Mathematica 12.

[5] = biological target: T1, PD-1/PD-L1 interaction (Homo sapiens, UniProt Q9NZQ7); test: PD-1/PD-L1 ICB assay (Jurkat-ECs with CHO/TCRAct/PD-L1 cells, luciferase); type: cell-based
T1 construct: host or cells: CHO-K1 (CHO/TCRAct/PD-L1) and Jurkat effector cells
Description: After a successful optimization of the terphenyl compounds, the activity of the optimized molecules 7a and 8a–j in a cellular context was assessed. To this end, we first performed the PD-1/PD-L1 ICB assay. In this assay, T-cell receptor (TCR)-mediated activation of Jurkat effector cells (Jurkat-ECs) is reduced by the presence of PD-L1, exposed at the surface of CHO/TCRAct/PD-L1 cells (Figure 3A).
The functional assay of the blockade of PD-1/PD-L1 interaction in vitro (PD-1/PD-L1 Blockade Bioassay, Promega) was performed according to the manufacturer’s protocol. CHO/TCRAct/PD-L1 cells or CHO/TCRAct or CHO-K1 cells were seeded on 96-well white plates at the density of 10,000 cells/well and the next day overlaid with Jurkat T cells (20,000 cells/well) in the presence of increasing concentrations of the compounds with DMSO only as a control (the concentration of DMSO was kept constant at 0.1%) or atezolizumab, as a positive control, anti-PD-L1 monoclonal antibody (Selleckchem). The 2.5-fold dilutions of atezolizumab were prepared in the assay buffer (RPMI 1640 + 1% FBS) on the day of the assay. Activation of the Jurkat T cells, reflected by luciferase activity, was monitored by luminescence measurements after 6 h of incubation (37 °C, 5% CO2), and 20 min of additional incubation with the Bio-Glo assay reagent (Promega) at room temperature. The luminescence was read on a Spark microplate reader (Tecan). The data are presented as fold induction of the luminescence signal relative to either untreated (for atezolizumab) or DMSO-treated (for compound) cells. Data points represent mean ± SD values from three to five independent experiments. Half-maximal effective concentrations (EC50 values) were calculated from the Hill curve fitting to the experimental data using Origin Pro 2020 software (OriginLab).

Chain of PD-1/PD-L1 complex (Q9NZQ7 19-238 limits assumed, one chain of several): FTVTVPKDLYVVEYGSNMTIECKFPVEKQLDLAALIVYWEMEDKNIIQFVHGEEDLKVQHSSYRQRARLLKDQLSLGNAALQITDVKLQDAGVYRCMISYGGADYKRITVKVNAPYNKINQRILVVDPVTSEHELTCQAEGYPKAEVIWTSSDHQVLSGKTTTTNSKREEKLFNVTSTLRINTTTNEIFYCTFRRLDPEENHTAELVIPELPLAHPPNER
T1 sequence (Q9NZQ7 19-290): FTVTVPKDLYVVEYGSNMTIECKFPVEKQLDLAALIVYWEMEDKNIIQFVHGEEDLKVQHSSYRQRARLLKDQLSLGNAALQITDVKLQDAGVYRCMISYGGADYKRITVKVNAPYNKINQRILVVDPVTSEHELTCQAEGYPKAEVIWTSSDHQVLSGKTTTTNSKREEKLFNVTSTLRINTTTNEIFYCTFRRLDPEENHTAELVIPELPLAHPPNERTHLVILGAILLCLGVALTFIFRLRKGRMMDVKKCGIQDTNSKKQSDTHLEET

COc1cc(-c2cccc(-c3ccc4c(c3)OCCO4)c2Cl)ccc1CNC(CO)(CO)CO [8j, 2-(((3′-(Benzo-1,4-dioxan-6-yl)-2′-chloro-3-methoxy-[1,1′-biphenyl]-4-yl)methyl)amino)-2-(hydroxymethyl)propane-1,3-diol]
accumulation of immune-related cytokines in culture media [1]: significant increases observed for IL-6, TNF-α, IFN-γ, IL-10, and IL-2
activation of Jurkat-ECs where PD-L1 is absent [2]: requires the presence of PD-L1
EC50 at 48 h [3]: 2880 ± 390 nM
remaining activity at 0.005 µM ([4]; read-out: % of undissociated complex at 5 nM): 0%
remaining activity at 0.005 µM ([4]; read-out: HTRF % of the undissociated complex at 5 nM): 0%
IC50 ([4]; HTRF, Table 4, <1.00 = limit of quantification reached): < 1 nM
selectivity of PD-1/PD-L1-blocking activity versus cytotoxicity ([5]; EC50 (tox.) vs EC50 (bio.), Figure 3F): highest selectivity
EC50 ([5]; Jurkat-ECs with CHO/TCRAct/PD-L1, 6 h, SI csv, read-out: Bioactivity (EC50 in the ICB assay)): 1030 ± 150 nM
EC50 ([5]; read-out: EC50 in cell-based assays): ~1000 nM
